Experimental data from ChEMBL document CHEMBL1141786, “Microbial transformation of curvularin” (J Nat Prod, 2005).
The source made the active and inactive calls.

How the values were obtained:
Assay type in all cases: functional, cell-based
NCI-H460 = assay: Cytotoxicity against human NCI-H460 cells upto 10 ug/mL by MTT assay
SF-268 = assay: Cytotoxicity against human SF268 cells upto 10 ug/mL by MTT assay
MCF7 = assay: Cytotoxicity against human MCF7 cells upto 10 ug/mL by MTT assay

Measured: Activity

C[C@H]1CCCCCC(=O)c2c(cc(O)cc2O[C@@H]2O[C@H](CO)[C@@H](O)[C@H](O)[C@H]2O)CC(=O)O1
inactive: all assays above

CO[C@H]1[C@H](O)[C@@H](O)[C@H](Oc2cc(O)cc3c2C(=O)CCCCC[C@H](C)OC(=O)C3)O[C@@H]1CO
inactive: all assays above

CO[C@H]1[C@H](O)[C@@H](O)[C@H](Oc2c(O)cc3c(c2O)C(=O)CCCCC[C@H](C)OC(=O)C3)O[C@@H]1CO
inactive: all assays above
